For one data set, the target named is T1, human NaV1.7 (Homo sapiens, UniProt Q15858).
T1 construct: permanently transfected with an expression vector containing the full-length cDNA coding for the desired human sodium channel α-subunit; expressed in transfected cells; host or cells: HEK-293
Kind of data set: Patch voltage clamp electrophysiology assay (EP), NaV1.7. The format is cell-based. Particulars: HEK-293 cells stably expressing NaV1.7 with β1 subunit; whole-cell patch clamp, membrane potential −60 mV (inactivated state). The protocol:
(§1) The following patch voltage clamp electrophysiology studies were performed on representative compounds of the invention using human embryonic kidney cells (HEK), permanently transfected with an expression vector containing the full-length cDNA coding for the desired human sodium channel α-subunit, grown in culture media containing 10% FBS, 1% PSG, and 0.5 mg/mL G418 at 37° C. with 5% CO2. […] NaV1.7 and NaV1.5 cDNAs (NM_002977 and AC137587; SCN5A, respectively) were stably expressed in HEK-293 cells. The β1 subunit was coexpressed in both the NaV1.7 and NaV1.5 cell lines.
(§2) Sodium currents were measured using the patch clamp technique in the whole-cell configuration using either a PatchXpress automated voltage clamp or manually using an Axopatch 200B (Axon Instruments) or Model 2400 (A-M systems) amplifier. The manual voltage clamp protocol was as follows: Borosilicate glass micropipettes were fire-polished to a tip diameter yielding a resistance of 2-4 Mohms in the working solutions. The pipette was filled with a solution comprised of: 5 mM NaCl, 10 mM CsCl, 120 mM CsF, 0.1 mM CaCl2, 2 mM MgCl2, 10 mM HEPES, 10 mM EGTA; and adjusted to pH 7.2 with CsOH. The external solution had the following composition: 140 mM NaCl, 5 mM KCl, 2 mM CaCl2, 1 mM MgCl2, 10 mM HEPES; and adjusted to pH 7.4 with NaOH. In some studies, the external sodium was reduced by equimolar replacement with choline. Osmolarity in the CsF internal and NaCl external solutions was adjusted to 300 mOsm/kg and 310 mOsm/kg with glucose, respectively. All recordings were performed at ambient temperature in a bath chamber with a volume of 150 μL. Control sodium currents were measured in 0.5% DMSO. Controls and representative compounds of the invention were applied to the recording chamber through a 4-pinch or 8-pinch valve bath perfusion system manufactured by ALA Scientific Instruments.
(§3) Series resistance compensation was applied (60-80%). […] All statistics in this study are given as mean±SD.
(§4) The membrane potential was maintained at a voltage where inactivation of the channel is complete (which was −60 mV for both NaV1.7 and NaV1.5). The voltage is then stepped back to a very negative (Vhold=[…]) voltage for 20 ms and then a test pulse is applied to quantify the compound block. […] The percent decrease in sodium current following wash-on of compound was taken as the percent block of sodium channels.
Background: The patch-clamp technique gives a direct electrical read-out from membranes.

Another data set deals with T2, hNav1.7 (Homo sapiens, UniProt Q15858).
T2 construct: expressed in transfected cells
T2 sequence (Q15858 1-1977 isoform Q15858-3): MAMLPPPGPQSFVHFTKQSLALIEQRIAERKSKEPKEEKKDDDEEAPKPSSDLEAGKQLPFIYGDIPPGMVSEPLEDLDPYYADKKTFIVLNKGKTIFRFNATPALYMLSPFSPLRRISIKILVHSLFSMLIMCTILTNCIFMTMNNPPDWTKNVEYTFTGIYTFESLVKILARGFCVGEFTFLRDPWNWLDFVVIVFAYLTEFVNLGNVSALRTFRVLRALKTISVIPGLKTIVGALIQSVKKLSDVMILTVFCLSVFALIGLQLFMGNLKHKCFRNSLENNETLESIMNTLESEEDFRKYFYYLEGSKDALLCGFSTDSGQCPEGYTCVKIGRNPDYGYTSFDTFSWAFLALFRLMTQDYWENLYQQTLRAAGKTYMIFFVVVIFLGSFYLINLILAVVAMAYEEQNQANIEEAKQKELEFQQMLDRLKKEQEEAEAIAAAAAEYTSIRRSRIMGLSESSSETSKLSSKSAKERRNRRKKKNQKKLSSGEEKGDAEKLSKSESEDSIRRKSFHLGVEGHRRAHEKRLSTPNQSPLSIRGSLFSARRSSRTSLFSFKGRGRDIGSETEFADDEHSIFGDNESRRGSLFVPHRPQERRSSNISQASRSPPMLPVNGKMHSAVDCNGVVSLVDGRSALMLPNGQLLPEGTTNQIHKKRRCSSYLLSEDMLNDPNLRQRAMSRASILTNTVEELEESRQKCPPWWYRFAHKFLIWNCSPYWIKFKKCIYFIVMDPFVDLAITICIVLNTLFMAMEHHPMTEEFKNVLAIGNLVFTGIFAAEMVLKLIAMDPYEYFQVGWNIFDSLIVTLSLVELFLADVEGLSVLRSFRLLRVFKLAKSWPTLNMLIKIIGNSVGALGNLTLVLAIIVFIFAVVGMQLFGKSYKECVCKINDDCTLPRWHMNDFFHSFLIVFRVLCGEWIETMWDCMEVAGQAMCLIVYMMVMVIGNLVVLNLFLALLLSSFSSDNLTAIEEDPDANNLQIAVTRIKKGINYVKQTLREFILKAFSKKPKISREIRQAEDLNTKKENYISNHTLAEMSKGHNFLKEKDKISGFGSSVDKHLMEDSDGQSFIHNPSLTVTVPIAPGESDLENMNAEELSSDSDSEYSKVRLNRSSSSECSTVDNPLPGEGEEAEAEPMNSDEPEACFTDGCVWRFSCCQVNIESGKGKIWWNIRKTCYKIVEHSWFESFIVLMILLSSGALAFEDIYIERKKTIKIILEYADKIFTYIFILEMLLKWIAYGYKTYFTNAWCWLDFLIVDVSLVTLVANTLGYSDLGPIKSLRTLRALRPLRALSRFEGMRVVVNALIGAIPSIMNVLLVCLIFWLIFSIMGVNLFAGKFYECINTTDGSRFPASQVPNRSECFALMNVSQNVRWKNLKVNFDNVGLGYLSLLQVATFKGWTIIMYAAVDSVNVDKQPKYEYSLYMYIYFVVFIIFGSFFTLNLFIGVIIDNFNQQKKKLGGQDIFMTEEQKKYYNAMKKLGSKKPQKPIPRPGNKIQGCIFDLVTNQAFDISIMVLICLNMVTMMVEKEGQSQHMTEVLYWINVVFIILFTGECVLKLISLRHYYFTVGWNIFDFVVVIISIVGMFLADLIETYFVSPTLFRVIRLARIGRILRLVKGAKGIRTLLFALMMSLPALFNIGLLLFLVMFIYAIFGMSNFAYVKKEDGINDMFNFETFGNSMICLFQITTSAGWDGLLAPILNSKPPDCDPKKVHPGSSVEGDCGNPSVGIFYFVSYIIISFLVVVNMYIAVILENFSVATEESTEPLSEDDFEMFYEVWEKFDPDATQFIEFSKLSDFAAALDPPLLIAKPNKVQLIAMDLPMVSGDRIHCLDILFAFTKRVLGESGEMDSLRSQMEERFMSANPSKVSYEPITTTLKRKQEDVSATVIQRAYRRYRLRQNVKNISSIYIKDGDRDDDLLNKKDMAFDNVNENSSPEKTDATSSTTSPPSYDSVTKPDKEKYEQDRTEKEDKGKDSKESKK
T2 sequence (Q07699 19-218 partner): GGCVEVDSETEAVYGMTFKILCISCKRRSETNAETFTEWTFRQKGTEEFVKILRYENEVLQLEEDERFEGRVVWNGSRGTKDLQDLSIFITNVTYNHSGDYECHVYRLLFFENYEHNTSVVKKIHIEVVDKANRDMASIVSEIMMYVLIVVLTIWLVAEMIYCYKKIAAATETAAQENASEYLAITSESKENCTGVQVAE
Description: Tritiated compound binding (LBA) to membranes from cells expressing hNav1.7 and the β1 subunit, competitive binding. The conditions noted are these: competitive binding vs 100 pM [3H]compound, 18 h, room temperature, membranes with hNav1.7 and β1 subunit. Summed up: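 Competitive displacement of 100 pM [3H]compound (tritiated methyl analogue of formula (I)) from hNav1.7/β1 membranes, 18 h at room temperature in NaCl/Tris pH 7.4 buffer containing 0.01% BSA. 1 μM unlabeled compound set non-specific binding. Bound label quantified by scintillation after filtration; 4-parameter fit gave IC50.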

Another data set deals with T3, NaV1.5 (Homo sapiens, UniProt Q14524).
T3 construct: permanently transfected with an expression vector containing the full-length cDNA coding for the desired human sodium channel α-subunit; expressed in transfected cells; host or cells: HEK-293
T3 sequence (Q14524 whole entry): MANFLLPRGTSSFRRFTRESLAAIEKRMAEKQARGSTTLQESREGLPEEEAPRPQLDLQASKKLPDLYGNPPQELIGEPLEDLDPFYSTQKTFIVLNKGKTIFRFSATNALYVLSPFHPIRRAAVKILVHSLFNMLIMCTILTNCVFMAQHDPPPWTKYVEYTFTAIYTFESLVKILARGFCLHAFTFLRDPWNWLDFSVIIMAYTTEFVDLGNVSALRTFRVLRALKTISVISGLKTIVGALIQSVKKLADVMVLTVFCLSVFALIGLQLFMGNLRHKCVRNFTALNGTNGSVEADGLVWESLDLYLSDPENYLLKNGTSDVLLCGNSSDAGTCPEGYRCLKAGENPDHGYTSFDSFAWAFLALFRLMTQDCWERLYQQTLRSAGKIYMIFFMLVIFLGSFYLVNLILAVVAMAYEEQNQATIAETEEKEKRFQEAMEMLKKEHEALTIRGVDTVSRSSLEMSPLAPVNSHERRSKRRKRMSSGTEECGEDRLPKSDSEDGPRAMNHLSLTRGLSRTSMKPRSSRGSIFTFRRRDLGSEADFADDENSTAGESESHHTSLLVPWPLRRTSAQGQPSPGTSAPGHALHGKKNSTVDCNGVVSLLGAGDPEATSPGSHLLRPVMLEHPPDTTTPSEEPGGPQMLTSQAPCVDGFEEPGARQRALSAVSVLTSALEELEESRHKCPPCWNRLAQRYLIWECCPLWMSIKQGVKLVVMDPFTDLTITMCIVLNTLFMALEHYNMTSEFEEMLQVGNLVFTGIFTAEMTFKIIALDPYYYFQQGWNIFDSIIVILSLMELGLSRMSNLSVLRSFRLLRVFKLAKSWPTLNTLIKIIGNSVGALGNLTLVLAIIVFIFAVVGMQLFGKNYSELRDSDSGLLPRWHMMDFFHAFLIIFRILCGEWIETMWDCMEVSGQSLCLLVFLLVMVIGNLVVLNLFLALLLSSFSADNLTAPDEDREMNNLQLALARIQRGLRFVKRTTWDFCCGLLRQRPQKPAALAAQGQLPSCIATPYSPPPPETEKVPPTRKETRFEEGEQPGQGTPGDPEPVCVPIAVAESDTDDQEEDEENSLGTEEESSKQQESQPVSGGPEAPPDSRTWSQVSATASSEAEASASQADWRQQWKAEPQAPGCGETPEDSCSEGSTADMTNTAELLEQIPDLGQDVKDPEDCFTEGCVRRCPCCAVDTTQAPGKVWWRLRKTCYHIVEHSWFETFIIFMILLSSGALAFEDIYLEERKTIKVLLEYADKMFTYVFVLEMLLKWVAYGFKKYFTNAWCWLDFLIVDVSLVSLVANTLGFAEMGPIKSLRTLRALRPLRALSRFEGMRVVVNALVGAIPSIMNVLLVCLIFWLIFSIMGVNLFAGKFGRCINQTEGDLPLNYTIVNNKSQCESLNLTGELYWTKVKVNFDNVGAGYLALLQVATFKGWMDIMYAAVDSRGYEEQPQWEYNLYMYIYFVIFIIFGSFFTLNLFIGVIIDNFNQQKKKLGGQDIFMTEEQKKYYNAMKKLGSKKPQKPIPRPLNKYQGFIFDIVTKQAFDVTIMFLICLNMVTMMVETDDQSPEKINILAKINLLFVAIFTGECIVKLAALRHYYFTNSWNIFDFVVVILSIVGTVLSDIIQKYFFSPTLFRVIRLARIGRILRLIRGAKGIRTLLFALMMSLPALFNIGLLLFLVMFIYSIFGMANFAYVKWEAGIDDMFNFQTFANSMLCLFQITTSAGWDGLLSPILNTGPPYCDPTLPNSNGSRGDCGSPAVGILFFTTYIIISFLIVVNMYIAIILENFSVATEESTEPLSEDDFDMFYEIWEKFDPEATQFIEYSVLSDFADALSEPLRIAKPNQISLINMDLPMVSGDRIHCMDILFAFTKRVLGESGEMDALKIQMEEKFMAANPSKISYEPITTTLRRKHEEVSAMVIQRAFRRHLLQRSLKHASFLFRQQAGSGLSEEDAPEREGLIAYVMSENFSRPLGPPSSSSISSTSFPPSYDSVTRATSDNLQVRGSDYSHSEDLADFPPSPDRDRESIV
Description: Patch voltage clamp electrophysiology assay (EP), NaV1.5. The format is cell-based. Particulars: HEK-293 cells stably expressing NaV1.5 with β1 subunit, whole-cell patch clamp, membrane potential −60 mV (inactivated state). The protocol: as §1, §2, §3, §4

Setting [1] is: human, HEK-293 cells stably expressing human NaV1.5 with β1 subunit, pH 7.4.

Each structure is given as a SMILES string. Read-outs that look alike come from different tables or passages of the source. A value given as a limit tells only on which side of the number the result lay.

Drawing on US10125098B2, “Therapeutic compounds and methods of use thereof” (GENENTECH, INC., priority 2014, dated 2018), this text covers IC50 for 24 compounds.

T1 sequence (Q15858 1-1977 isoform Q15858-3): as the sequence (Q15858 1-1977 isoform Q15858-3) above
T1 sequence (Q07699 19-218 partner): as the sequence (Q07699 19-218 partner) above

Take `C[C@H]1CCN(C(=O)c2cc(C3CC3)c(OCC3(C)CN([C@@H](c4ccccc4)c4cc(Cl)cc(Cl)c4)C3)cc2F)[C@@H]1C(=O)O` (single isomer, unassigned) [Example 116]: the IC50 against human NaV1.7 was determined as 580 nM; at hNav1.7, 12 nM; at NaV1.5 (read-out: Nav1.5), 15000 nM.
On the same counts, the results for `CC1(COc2cc(F)c(C(=O)N3C[C@H](F)C[C@H]3C(=O)O)cc2C2CC2)CN([C@@H](c2ccccc2)c2cc(Cl)cc(Cl)c2)C1` (single isomer, unassigned) [Example 117] are 510 nM, 23 nM and 8500 nM.
On the same counts, the results for `O=C(N[C@H](C(=O)O)C1CC1)c1cc(C2CC2)c(OCC2CCN([C@H](c3ccccc3)c3cc(Cl)cc(Cl)c3)CC2)cc1F` (single isomer, unassigned) [Example 118] are 760 nM, 21 nM and 15000 nM.
`O=C(N[C@H](C(=O)O)C1CC1)c1cc(C2CC2)c(OCC2CCN([C@@H](c3ccccc3)c3cc(Cl)cc(Cl)c3)CC2)cc1F` (single isomer, unassigned) [Example 119]: the IC50 against human NaV1.7 was 850 nM; at hNav1.7, 15 nM; at NaV1.5 (read-out: Nav1.5) it was 9400 nM.
On the same counts, the results for `C[C@H]1CCN(C(=O)c2cc(C3CC3)c(OCC3CCN([C@H](c4cc(Cl)cc(Cl)c4)C(F)(F)F)CC3)cc2F)[C@@H]1C(=O)O` (single isomer, unassigned) [Example 121a] are 880 nM, 20 nM and 13000 nM.
On the same counts, the results for `C[C@H]1CCN(C(=O)c2cc(C3CC3)c(OCC3CCN([C@@H](c4cc(Cl)cc(Cl)c4)C(F)(F)F)CC3)cc2F)[C@@H]1C(=O)O` (single isomer, unassigned) [Example 121b] are 880 nM, 18 nM and 17000 nM.
As to `O=C(O)[C@@H]1CCCN1C(=O)c1cc(C2CC2)c(OCC2CCN([C@H](c3cc(Cl)cc(Cl)c3)C(F)(F)F)CC2)cc1F` (single isomer, unassigned) [Example 123a], the results for the IC50 on human NaV1.7, at hNav1.7 and on NaV1.5 (read-out: Nav1.5) were 490 nM, 48 nM and 7100 nM, respectively.
With `O=C(O)[C@@H]1CCCN1C(=O)c1cc(C2CC2)c(OCC2CCN([C@@H](c3cc(Cl)cc(Cl)c3)C(F)(F)F)CC2)cc1F` (single isomer, unassigned) [Example 123b], the IC50 against human NaV1.7 came to 410 nM; on hNav1.7, 31 nM; on NaV1.5 (read-out: Nav1.5), 7700 nM.
On the same counts, the results for `O=C(O)[C@@H]1C[C@@H](F)CN1C(=O)c1cc(C2CC2)c(OCC2CCN([C@@H](c3ccccc3)c3cc(Cl)cc(Cl)c3)CC2)cc1F` (single isomer, unassigned) [Example 125] are 380 nM, 16 nM and 6200 nM.
On the same counts, the results for `C[C@H](c1cc(Cl)cc(Cl)c1)N1CCC(C#N)(COc2cc(F)c(C(=O)N3C[C@H](F)C[C@H]3C(=O)O)cc2C2CC2)CC1` (single isomer, unassigned) [Example 126a] are 2300 nM, 120 nM and 10000 nM.
On the same counts, the results for `C[C@@H](c1cc(Cl)cc(Cl)c1)N1CCC(C#N)(COc2cc(F)c(C(=O)N3C[C@H](F)C[C@H]3C(=O)O)cc2C2CC2)CC1` (single isomer, unassigned) [Example 126b] are 1400 nM, 100 nM and 10000 nM.
With `C[C@@H](c1cc(Cl)cc(Cl)c1)N1CCC(C)(COc2cc(F)c(C(=O)N3C[C@H](F)C[C@H]3C(=O)O)cc2C2CC2)CC1` (single isomer, unassigned) [Example 132a], the results for the IC50 on human NaV1.7, at hNav1.7 and on NaV1.5 (read-out: Nav1.5) were 330 nM, 24 nM and 17000 nM, respectively.
In the case of `C[C@H](c1cc(Cl)cc(Cl)c1)N1CCC(C)(COc2cc(F)c(C(=O)N3C[C@H](F)C[C@H]3C(=O)O)cc2C2CC2)CC1` (single isomer, unassigned) [Example 132b], the IC50 on human NaV1.7 is 430 nM; at hNav1.7 it was 24 nM; on NaV1.5 (setting [1]), no less than 30000 nM.
Turning to `C[C@@]1(COc2cc(F)c(C(=O)N3CCC[C@H]3C(=O)O)cc2C2CC2)CCN(Cc2cc(F)cc(Cl)c2)C1` (single isomer, unassigned) [Example 137a], the IC50 is 3700 nM at human NaV1.7, 570 nM at hNav1.7 and 15000 nM on NaV1.5 (read-out: Nav1.5).
For `C[C@]1(COc2cc(F)c(C(=O)N3CCC[C@H]3C(=O)O)cc2C2CC2)CCN(Cc2cc(F)cc(Cl)c2)C1` (single isomer, unassigned) [Example 137b], the results for the IC50 on human NaV1.7, at hNav1.7 and against NaV1.5 (setting [1]) were 2400 nM, 310 nM and no less than 30000 nM, respectively.
Turning to `C[C@H]1OCN(C(=O)c2cc(C3CC3)c(OCC3CCN([C@H](c4cc(Cl)cc(Cl)c4)C(F)(F)F)CC3)cc2F)[C@@H]1C(=O)O` (single isomer, unassigned) [Example 138a], the results for the IC50 at human NaV1.7, on hNav1.7 and on NaV1.5 (read-out: Nav1.5) were 300 nM, 6.9 nM and 13000 nM, respectively.
For `C[C@H]1OCN(C(=O)c2cc(C3CC3)c(OCC3CCN([C@@H](c4cc(Cl)cc(Cl)c4)C(F)(F)F)CC3)cc2F)[C@@H]1C(=O)O` (single isomer, unassigned) [Example 138b], the IC50 at human NaV1.7 was found to be 320 nM; at hNav1.7, 7.6 nM; at NaV1.5 (read-out: Nav1.5), 11000 nM.
On the same counts, the results for `O=C(O)[C@@H]1CCCN1C(=O)c1cc(C2CC2)c(OC[C@H]2CCN(C(c3ccccc3)c3ccccc3)C2)cc1F` (single isomer, unassigned) [Example 139a] are 5000 nM, 650 nM and 25000 nM.
On the same counts, the results for `O=C(O)[C@@H]1CCCN1C(=O)c1cc(C2CC2)c(OC[C@@H]2CCN(C(c3ccccc3)c3ccccc3)C2)cc1F` (single isomer, unassigned) [Example 139b] are 7100 nM, 800 nM and 22000 nM.
On the same counts, the results for `O=C(O)[C@@H]1C[C@@H](F)CN1C(=O)c1cc(C2CC2)c(OCC2CCN([C@H](c3cc(Cl)cc(Cl)c3)C(F)(F)F)CC2)cc1F` (single isomer, unassigned) [Example 140a] are 170 nM, 14 nM and 2700 nM.
`O=C(O)[C@@H]1C[C@@H](F)CN1C(=O)c1cc(C2CC2)c(OCC2CCN([C@@H](c3cc(Cl)cc(Cl)c3)C(F)(F)F)CC2)cc1F` (single isomer, unassigned) [Example 140b]: the results for the IC50 on human NaV1.7, at hNav1.7 and on NaV1.5 (read-out: Nav1.5) were 160 nM, 21 nM and 3700 nM, respectively.
On the same counts, the results for `O=C(NC(C(=O)O)C1CC1)c1cc(C2CC2)c(COc2cc(Cl)cc(OC(F)(F)F)c2)cc1F` (stereo in doubt) [Example 120, (R)-2-(4-((3-chloro-5-(trifluoromethoxy)phenoxy)methyl)-5-cyclopropyl-2-fluorobenzamido)-2-cyclopropylacetic acid] are 290 nM, 27 nM and 14000 nM.
On the same counts, the results for `CC1(C)CCN(C(=O)c2cc(C3CC3)c(OCC34CC5CC(CC(C5)C3)C4)cc2F)C1C(=O)O` (stereo in doubt) [Example 151, (2R)-1-[4-(1-adamantylmethoxy)-5-cyclopropyl-2-fluoro-benzoyl]-3,3-dimethyl-pyrrolidine-2-carboxylic acid] are 780 nM, 58 nM and 5200 nM.
On the same counts, the results for `O=C(O)C1COCN1C(=O)c1cc(C2CC2)c(OCC23CC4CC(CC(C4)C2)C3)cc1F` (stereo in doubt) [Example 154, (4R)-3-[4-(1-adamantylmethoxy)-5-cyclopropyl-2-fluoro-benzoyl]oxazolidine-4-carboxylic acid] are 830 nM, 59 nM and 16000 nM.
